Laboratory results published in ChEMBL document CHEMBL4152362, “Discovery of DS-6930, a potent selective PPARγ modulator. Part II: Lead optimization” (Bioorg Med Chem, 2018).
Each block holds one compound with its values, some of them ahead of it.

What was measured:
[1] = Cmax in F344/DuCrlCrlj rat at 100 mg/kg, po via gavage measured on day 28 post dose; type: ADME, organism-based; set-up: dose 100 mg/kg, route oral; details: in vivo
[2] = AUC (0 to 24 hrs) in F344/DuCrlCrlj rat at 300 mg/kg, po via gavage measured on day 28 post dose; type: ADME, organism-based; set-up: time < 24 hr, dose 300 mg/kg, route oral; details: in vivo
[3] = Tmax in F344/DuCrlCrlj rat at 100 mg/kg, po via gavage measured on day 28 post dose; type: ADME, organism-based; details: in vivo
[4] = Tmax in F344/DuCrlCrlj rat at 300 mg/kg, po via gavage measured on day 28 post dose; type: ADME, organism-based; details: in vivo
[5] = AUC (0 to 24 hrs) in F344/DuCrlCrlj rat at 100 mg/kg, po via gavage measured on day 28 post dose; type: ADME, organism-based; set-up: dose 100 mg/kg, time < 24 hr, route oral; details: in vivo
[6] = Tmax in F344/DuCrlCrlj rat at 1000 mg/kg, po via gavage measured on day 28 post dose; type: ADME, organism-based; details: in vivo
[7] = AUC (0 to 24 hrs) in F344/DuCrlCrlj rat at 1000 mg/kg, po via gavage measured on day 28 post dose; type: ADME, organism-based; set-up: time < 24 hr, dose 1000 mg/kg, route oral; details: in vivo
[8] = Cmax in F344/DuCrlCrlj rat at 300 mg/kg, po via gavage measured on day 28 post dose; type: ADME, organism-based; set-up: dose 300 mg/kg, route oral; details: in vivo
[9] = Cmax in F344/DuCrlCrlj rat at 1000 mg/kg, po via gavage measured on day 28 post dose; type: ADME, organism-based; set-up: dose 1000 mg/kg, route oral; details: in vivo
[10] = Drug uptake in F344/DuCrlCrlj rat plasma administered via oral gavage measured on day 28 post dose; type: ADME
[11] = AUClast in cynomolgus monkey at 3 mg/kg, po by LC-MS/MS; type: ADME, organism-based, Macaca fascicularis; set-up: dose 3 mg/kg, time 0 - last, route oral; details: in vivo
[12] = Tmax in cynomolgus monkey at 3 mg/kg, po by LC-MS/MS; type: ADME, organism-based, Macaca fascicularis; details: in vivo
[13] = molecular target: T1, Peroxisome proliferator-activated receptor alpha (Homo sapiens, UniProt Q07869); assay: Agonist activity at recombinant human GAL4-DBD fused PPARalpha LBD expressed in COS7 cells after 24 hrs by luciferase reporter gene assay; type: cell-based
T1 sequence (Q07869 whole entry): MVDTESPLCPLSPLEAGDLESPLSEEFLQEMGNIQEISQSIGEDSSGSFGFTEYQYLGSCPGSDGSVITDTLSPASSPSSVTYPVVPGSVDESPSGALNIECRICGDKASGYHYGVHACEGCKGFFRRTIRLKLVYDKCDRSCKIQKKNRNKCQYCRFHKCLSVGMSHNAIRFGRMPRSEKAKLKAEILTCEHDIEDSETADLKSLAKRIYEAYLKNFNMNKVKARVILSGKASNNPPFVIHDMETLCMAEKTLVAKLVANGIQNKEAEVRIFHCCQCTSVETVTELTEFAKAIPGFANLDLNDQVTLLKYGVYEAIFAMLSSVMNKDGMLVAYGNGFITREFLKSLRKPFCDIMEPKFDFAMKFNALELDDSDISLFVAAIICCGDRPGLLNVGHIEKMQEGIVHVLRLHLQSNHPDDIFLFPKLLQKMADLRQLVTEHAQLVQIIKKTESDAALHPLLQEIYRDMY

[14] = Metabolic stability in human liver microsomes after 0.5 hrs; type: ADME, microsome; details: read-out: Stability
[15] = Half life in cynomolgus monkey at 3 mg/kg, po by LC-MS/MS; type: ADME, organism-based, Macaca fascicularis; details: in vivo
[16] = molecular target: T2, Peroxisome proliferator-activated receptor gamma (Homo sapiens, UniProt P37231); assay: Agonist activity at recombinant human GAL4-DBD fused PPARgamma LBD expressed in COS7 cells after 24 hrs by luciferase reporter gene assay; type: cell-based
T2 sequence (P37231 whole entry): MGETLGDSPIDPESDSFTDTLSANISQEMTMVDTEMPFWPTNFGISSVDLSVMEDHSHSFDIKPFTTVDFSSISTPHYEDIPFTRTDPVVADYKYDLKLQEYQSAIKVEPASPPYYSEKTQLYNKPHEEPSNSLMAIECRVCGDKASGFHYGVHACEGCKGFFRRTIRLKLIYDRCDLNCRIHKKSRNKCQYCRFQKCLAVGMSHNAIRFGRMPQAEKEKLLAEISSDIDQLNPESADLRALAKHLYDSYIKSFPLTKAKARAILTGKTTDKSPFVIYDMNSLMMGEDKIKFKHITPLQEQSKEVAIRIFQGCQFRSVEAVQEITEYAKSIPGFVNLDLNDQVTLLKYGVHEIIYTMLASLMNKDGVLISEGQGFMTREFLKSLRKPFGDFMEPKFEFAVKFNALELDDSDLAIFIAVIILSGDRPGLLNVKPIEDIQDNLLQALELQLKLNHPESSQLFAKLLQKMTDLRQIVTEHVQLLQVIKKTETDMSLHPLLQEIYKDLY

[17] = molecular target: T3, Peroxisome proliferator-activated receptor alpha (Homo sapiens) (UniProt Q07869); assay: Agonist activity at recombinant human GAL4-DBD fused PPARalpha LBD expressed in COS7 cells at 10 uM after 24 hrs by luciferase reporter gene assay relative to 2-(4-tert-Butylphenoxy)-3-[4-[2-[(4-pyridin-2-ylbenzoyl)amino]ethoxy] phenyl]propionic acid; type: cell-based
T3 sequence (whole entry): T1 sequence (Q07869 whole entry)

[18] = Cmax in cynomolgus monkey at 3 mg/kg, po by LC-MS/MS; type: ADME, organism-based, Macaca fascicularis; set-up: dose 3 mg/kg, route oral; details: in vivo
[19] = Oral bioavailability in cynomolgus monkey at 3 mg/kg by LC-MS/MS; type: ADME, organism-based, Macaca fascicularis; details: in vivo
[20] = Volume of distribution at steady state in cynomolgus monkey at 1 mg/kg, iv by LC-MS/MS; type: ADME, organism-based, Macaca fascicularis; details: in vivo, read-out: Vdss
[21] = Metabolic stability in cynomolgus monkey liver microsomes after 0.5 hrs; type: ADME, Macaca fascicularis, microsome; details: read-out: Stability
[22] = molecular target: T4, Peroxisome proliferator-activated receptor gamma (Homo sapiens) (UniProt P37231); assay: Agonist activity at recombinant human GAL4-DBD fused PPARgamma LBD expressed in COS7 cells at 10 uM after 24 hrs by luciferase reporter gene assay relative to rosiglitazone; type: cell-based
T4 sequence (whole entry): T2 sequence (P37231 whole entry)

Hepatocyte [23] = assay: Cytotoxicity against F344/DuCrlCrlj rat primary hepatocytes assessed as reduction in mitochondrial enzyme activity at 10 to 100 uM after 24 hrs by WST8 assay; type: cell-based
Hepatocyte [24] = assay: Cytotoxicity against F344/DuCrlCrlj rat primary hepatocytes assessed as reduction in mitochondrial enzyme activity at 100 uM after 24 hrs by WST8 assay relative to control; type: cell-based; set-up: scale not given: the % may be the effect or the level left
[25] = Clearance in cynomolgus monkey at 1 mg/kg, iv by LC-MS/MS; type: ADME, organism-based, Macaca fascicularis; details: in vivo
[26] = 1-octanol/PBS distribution co-efficient, log D of the compound at […] at pH 7.4 after 30 mins by HPLC-MS/MS method; type: physicochemical
[27] = Apparent permeability of the compound after 4 hrs by PAMPA; type: ADME

Cmax [1]: 92.8 µg/mL | AUC at 24 h [2]: 933 µg·h/mL | Tmax [3]: 0.5 h | Tmax [4]: 0.5 h | AUC at 24 h [5]: 399 µg·h/mL | Tmax [6]: 1 h | AUC at 24 h [7]: 1080 µg·h/mL | Cmax [8]: 206 µg/mL | Cmax [9]: 273 µg/mL | Drug uptake [10]: Dose-dependent effect
Compound: Cc1cnc(Oc2ccc3nc(COc4cccc(C(=O)O)c4)n(C)c3c2)c(C)c1.Cl

AUC(0-t) [11]: 40.2 µg·h/mL | Tmax [12]: 1.67 h | EC50 [13]: > 10 µM | remaining at 0.5 h [14]: 100% | half-life [15]: 18.3 h | EC50 [16]: 0.068 µM | Emax [17]: 32% | Cmax [18]: 4.44 µg/mL | bioavailability [19]: 25% | Vd [20]: 0.2 L/kg | remaining at 0.5 h [21]: 100% | Emax [22]: 82% | clearance [25]: 0.0192 L/h/kg | logD at 0.5 h [26]: 2.7 | Papp at 4 h [27]: 385 nm/s
Compound: Cn1c(COc2cccc(C(=O)O)c2)nc2ccc(Oc3ccc(Cl)c(F)c3)cc21
Activity (Hepatocyte [23]): Dose-dependent effect | Activity (Hepatocyte [24]): 19%
